According to patent publication US11484539B2, “Compounds and their uses for alleviating menopause-associated symptoms” (Estetra SPRL, priority 2018, dated 2022):
Where two headings read alike, the source gives them in different places. Marks after values point to notes of the source that are not given here.

Columns and labels:
post-menopausal women [1] = assay: Menopause Rating Scale (MRS), total MRS score; type: in vivo; design: key: 0 = asymptomatic, 44 = highest degree of complaints
Description: As used herein, the terms “Quality of Life” (and the abbreviation “QoL”) refers to a parameter which can be assessed, for example, by using questionnaires, such as, by way of example and not limitation, the “Menopause Rating Scale” questionnaire (Heinemann et al., 2003, “International versions of the Menopause Rating Scale (MRS)” Health Qual Life Outcomes 1: 28; Heinemann et al., 2004, “The Menopause Rating Scale (MRS) scale: A methodological review”. Health Qual Life Outcomes 2: 45; Heinemann et al., 2004, “The Menopause Rating Scale (MRS) as outcome measure for hormone treatment? A validation study”. Health Qual Life Outcomes 2:67; as further detailed below in Example 1 Section C.) or the MENQOL questionnaire (The Menopause-specific Quality of Life (MENQOL) questionnaire, Hilditch et al.; Maturitas 1996; A menopause-specific quality of life questionnaire: development and psychometric properties; 24(3); p. 161-175).
The Menopause Rating Scale (MRS) is a health-related quality of life scale allowing the measure of severity of age-/menopause-related complaints by rating a profile of symptoms (Heinemann et al., 2003, “International versions of the Menopause Rating Scale (MRS)” Health Qual Life Outcomes 1: 28; Heinemann et al., 2004, “The Menopause Rating Scale (MRS) scale: A methodological review”. Health Qual Life Outcomes 2: 45; Heinemann et al., 2004, “The Menopause Rating Scale (MRS) as outcome measure for hormone treatment? A validation study”. Health Qual Life Outcomes 2:67).
The score increases point by point with increasing severity of subjectively perceived complaints in each one of 11 items (severity expressed in 0 to 4 points in each item). By checking these 5 possible boxes of “severity” for each of the items in the questionnaire, the respondent provides their personal perception. The total MRS score ranges between 0 (asymptomatic) to 44 (highest degree of complaints). The minimal/maximal scores vary between three dimensions depending on the number of complaints allocated to the respective dimension of symptoms (Heinemann et al., 2003, Health Qual Life Outcomes 1: 28): • 1. psychological symptoms: 0 to 16 scoring points (4 symptoms: depressed, irritable, anxious, exhausted); • 2. somato-vegetative symptoms: 0 to 16 points (4 symptoms: sweating/flush, cardiac complaints, sleeping disorders, joint & muscle complaints); • 3. urogenital symptoms: 0 to 12 points (3 symptoms: sexual problems, urinary complaints, vaginal dryness).

post-menopausal women [2] = assay: Genito-urinary symptoms (GSM), VVA subject self-assessment; type: in vivo
Experimental: Change from baseline to week 12 in the following GSM symptoms (VVA subject self-assessment) were recorded: • a) Vaginal dryness (sensation of dryness or burning in the vagina; none=0 mild=1, moderate=2 or severe=3):
• b) Vaginal and/or vulvar irritation/itching (sensation of abnormal irritation or sensitive condition in the vagina; none=0, mild=1, moderate=2 or severe=3):
• c) Dysuria (sensation of pain or difficulty in urinating; none=0, mild=1, moderate=2 or severe=3):
• d) Vaginal pain associated with sexual activity (sensation of pain with sexual intercourse none=0, mild=1, moderate=2 or severe=3):
• e) Vaginal bleeding associated with sexual activity (loss of blood with sexual intercourse; presence=1 vs. absence=0): […]

postmenopausal women = details: cited from earlier work

Q: For `C[C@]12CC[C@@H]3c4ccc(O)cc4CC[C@H]3[C@@H]1[C@@H](O)[C@@H](O)[C@@H]2O` [E4, 1,3,5 (10)-estratrien-3,15alpha,16alpha,17beta-tetrol], which “Total MRS Score, Mean” value (post-menopausal women [1]; 2.5 mg, Baseline) is on record?
A: The value was 16.5.

Q: What about the “Total MRS Score, Mean” value (post-menopausal women [1]; 2.5 mg, Week 12) of the same compound?
A: The value was 9.5.

Q: What about the “Total MRS Score, Mean” value (post-menopausal women [1]; 2.5 mg, week 4) of the same compound?
A: Its value is 10.3.

Q: What about the “Total MRS Score, Mean” value (post-menopausal women [1]; 5 mg, Baseline) of the same compound?
A: The value was 16.5.

Q: And the “Total MRS Score, Mean” value (post-menopausal women [1]; 5 mg, Week 12)?
A: The value was 11.0.

Q: And the “Total MRS Score, Mean” value (post-menopausal women [1]; 5 mg, week 4)?
A: The value was 10.5.

Q: And the “Total MRS Score, Mean” value (post-menopausal women [1]; 10 mg, Baseline)?
A: Its value is 17.6.

Q: What about the “Total MRS Score, Mean” value (post-menopausal women [1]; 10 mg, Week 12) of the same compound?
A: The value was 9.7.

Q: And the “Total MRS Score, Mean” value (post-menopausal women [1]; 10 mg, week 4)?
A: Its value is 11.7.

Q: What about the “Total MRS Score, Mean” value (post-menopausal women [1]; 15 mg, Baseline) of the same compound?
A: The value was 16.4.

Q: And the “Total MRS Score, Mean” value (post-menopausal women [1]; 15 mg, Week 12)?
A: The value was 8.1.

Q: And the “Total MRS Score, Mean” value (post-menopausal women [1]; 15 mg, week 4)?
A: The value was 8.7.

Q: What about the “Dysuria score (none=0, mild=1, moderate=2, severe=3), mean ± SD” value (“Dysuria score … mean ± SD” below) (post-menopausal women [2]; 2.5 mg, Baseline) of the same compound?
A: Its value is 0.2 ± 0.56.

Q: And the “Vaginal and/or vulvar irritation/itching score (none=0, mild=1, moderate=2, severe=3), mean ± SD” value (post-menopausal women [2]; 2.5 mg, Baseline)?
A: The value was 0.7 ± 0.96.

Q: And the “Vaginal bleeding associated with sexual activity, Absence (%)” value (from here on “Vaginal bleeding associated … Absence (%)”) (post-menopausal women [2]; 2.5 mg, Baseline)?
A: The value was 100%.

Q: What about the “Vaginal bleeding associated with sexual activity, Presence (%)” value (“Vaginal bleeding associated … Presence (%)” for short) (post-menopausal women [2]; 2.5 mg, Baseline) of the same compound?
A: The value was 0%.

Q: What about the “Vaginal dryness score (none=0, mild=1, moderate=2, severe=3), mean ± SD” value (from here on “Vaginal dryness score … mean ± SD”) (post-menopausal women [2]; 2.5 mg, Baseline) of the same compound?
A: The value was 1 ± 0.90.

Q: What about the “Vaginal pain associated with sexual activity score (none=0, mild=1, moderate=2, severe=3), mean ± SD” value (shortened to “Vaginal pain associated … mean ± SD”) (post-menopausal women [2]; 2.5 mg, Baseline) of the same compound?
A: The value was 0.6 ± 0.77.

Q: And the “Dysuria score … mean ± SD” value (post-menopausal women [2]; 2.5 mg, Week 12)?
A: The value was 0 ± 0.19.

Q: And the “Vaginal and/or vulvar irritation/itching score (none=0, mild=1, moderate=2, severe=3), mean ± SD” value (post-menopausal women [2]; 2.5 mg, Week 12)?
A: Its value is 0.3 ± 0.60.

Q: And the “Vaginal bleeding associated … Absence (%)” value (post-menopausal women [2]; 2.5 mg, Week 12)?
A: Its value is 100%.

Q: What about the “Vaginal bleeding associated … Presence (%)” value (post-menopausal women [2]; 2.5 mg, Week 12) of the same compound?
A: Its value is 0%.

Q: And the “Vaginal dryness score … mean ± SD” value (post-menopausal women [2]; 2.5 mg, Week 12)?
A: Its value is 0.5 ± 0.77.

Q: What about the “Vaginal pain associated … mean ± SD” value (post-menopausal women [2]; 2.5 mg, Week 12) of the same compound?
A: The value was 0.3 ± 0.73.

Q: What about the “Dysuria score … mean ± SD” value (post-menopausal women [2]; 5 mg, Baseline) of the same compound?
A: Its value is 0.2 ± 0.56.

Q: And the “Vaginal and/or vulvar irritation/itching score (none=0, mild=1, moderate=2, severe=3), mean ± SD” value (post-menopausal women [2]; 5 mg, Baseline)?
A: The value was 0.6 ± 0.90.

Q: And the “Vaginal bleeding associated … Presence (%)” value (post-menopausal women [2]; 5 mg, Baseline)?
A: The value was 6.4%.

Q: What about the “Vaginal dryness score … mean ± SD” value (post-menopausal women [2]; 5 mg, Baseline) of the same compound?
A: The value was 1.3 ± 0.94.

Q: What about the “Vaginal pain associated … mean ± SD” value (post-menopausal women [2]; 5 mg, Baseline) of the same compound?
A: Its value is 1 ± 1.07.

Q: And the “Vaginal bleeding associated … Absence (%)” value (post-menopausal women [2]; 5 mg, Baseline, some patients had no sexual activity)?
A: The value was 91.5^# %.

Q: What about the “Dysuria score … mean ± SD” value (post-menopausal women [2]; 5 mg, Week 12) of the same compound?
A: Its value is 0 ± 0.20.

Q: And the “Vaginal and/or vulvar irritation/itching score (none=0, mild=1, moderate=2, severe=3), mean ± SD” value (post-menopausal women [2]; 5 mg, Week 12)?
A: The value was 0.4 ± 0.65.

Q: What about the “Vaginal bleeding associated … Absence (%)” value (post-menopausal women [2]; 5 mg, Week 12) of the same compound?
A: Its value is 100%.

Q: What about the “Vaginal bleeding associated … Presence (%)” value (post-menopausal women [2]; 5 mg, Week 12) of the same compound?
A: The value was 0%.

Q: What about the “Vaginal dryness score … mean ± SD” value (post-menopausal women [2]; 5 mg, Week 12) of the same compound?
A: Its value is 0.7 ± 0.86.

Q: And the “Vaginal pain associated … mean ± SD” value (post-menopausal women [2]; 5 mg, Week 12)?
A: Its value is 0.5 ± 0.78.

Q: What about the “Dysuria score … mean ± SD” value (post-menopausal women [2]; 10 mg, Baseline) of the same compound?
A: The value was 0.2 ± 0.58.

Q: And the “Vaginal and/or vulvar irritation/itching score (none=0, mild=1, moderate=2, severe=3), mean ± SD” value (post-menopausal women [2]; 10 mg, Baseline)?
A: Its value is 0.7 ± 0.87.

Q: What about the “Vaginal bleeding associated … Absence (%)” value (post-menopausal women [2]; 10 mg, Baseline) of the same compound?
A: The value was 100%.

Q: And the “Vaginal bleeding associated … Presence (%)” value (post-menopausal women [2]; 10 mg, Baseline)?
A: The value was 0%.

Q: What about the “Vaginal dryness score … mean ± SD” value (post-menopausal women [2]; 10 mg, Baseline) of the same compound?
A: The value was 1 ± 0.93.

Q: What about the “Vaginal pain associated … mean ± SD” value (post-menopausal women [2]; 10 mg, Baseline) of the same compound?
A: The value was 0.6 ± 0.77.

Q: What about the “Dysuria score … mean ± SD” value (post-menopausal women [2]; 10 mg, Week 12) of the same compound?
A: The value was 0.1 ± 0.23.

Q: And the “Vaginal and/or vulvar irritation/itching score (none=0, mild=1, moderate=2, severe=3), mean ± SD” value (post-menopausal women [2]; 10 mg, Week 12)?
A: The value was 0.3 ± 0.64.

Q: What about the “Vaginal bleeding associated … Absence (%)” value (post-menopausal women [2]; 10 mg, Week 12) of the same compound?
A: The value was 100%.

Q: And the “Vaginal bleeding associated … Presence (%)” value (post-menopausal women [2]; 10 mg, Week 12)?
A: Its value is 0%.

Q: And the “Vaginal dryness score … mean ± SD” value (post-menopausal women [2]; 10 mg, Week 12)?
A: Its value is 0.5 ± 0.75.

Q: And the “Vaginal pain associated … mean ± SD” value (post-menopausal women [2]; 10 mg, Week 12)?
A: The value was 0.2 ± 0.36.

Q: And the “Dysuria score … mean ± SD” value (post-menopausal women [2]; 15 mg, Baseline)?
A: The value was 0.3 ± 0.58.

Q: And the “Vaginal and/or vulvar irritation/itching score (none=0, mild=1, moderate=2, severe=3), mean ± SD” value (post-menopausal women [2]; 15 mg, Baseline)?
A: The value was 0.5 ± 0.85.

Q: What about the “Vaginal bleeding associated … Presence (%)” value (post-menopausal women [2]; 15 mg, Baseline) of the same compound?
A: The value was 0%.

Q: And the “Vaginal dryness score … mean ± SD” value (post-menopausal women [2]; 15 mg, Baseline)?
A: Its value is 1.1 ± 1.04.

Q: What about the “Vaginal pain associated … mean ± SD” value (post-menopausal women [2]; 15 mg, Baseline) of the same compound?
A: Its value is 0.7 ± 0.90.

Q: What about the “Vaginal bleeding associated … Absence (%)” value (post-menopausal women [2]; 15 mg, Baseline, some patients had no sexual activity) of the same compound?
A: Its value is 97.9^# %.

Q: And the “Dysuria score … mean ± SD” value (post-menopausal women [2]; 15 mg, Week 12)?
A: Its value is 0.3 ± 0.61.

Q: And the “Vaginal and/or vulvar irritation/itching score (none=0, mild=1, moderate=2, severe=3), mean ± SD” value (post-menopausal women [2]; 15 mg, Week 12)?
A: The value was 0.4 ± 0.70.

Q: What about the “Vaginal bleeding associated … Absence (%)” value (post-menopausal women [2]; 15 mg, Week 12) of the same compound?
A: The value was 95.8%.

Q: What about the “Vaginal bleeding associated … Presence (%)” value (post-menopausal women [2]; 15 mg, Week 12) of the same compound?
A: Its value is 4.2%.

Q: What about the “Vaginal dryness score … mean ± SD” value (post-menopausal women [2]; 15 mg, Week 12) of the same compound?
A: The value was 0.5 ± 0.68.

Q: And the “Vaginal pain associated … mean ± SD” value (post-menopausal women [2]; 15 mg, Week 12)?
A: Its value is 0.3 ± 0.54.

Q: And the Endometrial thickness (postmenopausal women; 2 mg estetrol group)?
A: The Endometrial thickness was “stable”.

Q: What about the “Mean number of hot flushes and sweating” value (postmenopausal women; 2 mg estetrol per day) of the same compound?
A: Its value is “decrease”.

Q: And the Endometrial thickness (postmenopausal women; 10 mg estetrol group)?
A: The Endometrial thickness was “increasing”.
